# System: 4 PI3K isoforms (Human recombinant GST-PI3K)
# Experiment: PI3K scintillation proximity assay, best IC50 obtained with the four isoforms (alpha, beta, delta, gamma)
# Type: biochemical
# Conditions: best IC50 obtained with the four isoforms of PI3K; read-out: Best potency measured on the 4 PI3K isoforms
row,Compound,IC50
1,"O=C(c1ccc2c(c1)-c1c(c(C(=O)N3CCOCC3)nn1-c1ccccc1)CS2(=O)=O)N1CCCCC1 [Example 117, 3-(Morpholin-4-ylcarbonyl)-1-phenyl-8-(piperidin-1-ylcarbonyl)-1,4-dihydrothiochromeno[4,3-c]pyrazole 5,5-dioxide]",3410 nM
2,"CS(=O)(=O)Nc1ccc2c(c1)-c1c(c(C(=O)N3CCOCC3)nn1-c1ccccc1)CS2(=O)=O [Example 118, N-[3-(Morpholin-4-ylcarbonyl)-5,5-dioxido-1-phenyl-1,4-dihydrothiochromeno[4,3-c]pyrazol-8-yl]methanesulfonamide]",1310 nM
3,"CC(C)(C)OC(=O)N1CCC(n2nc(C(=O)N3CCOCC3)c3c2-c2ccccc2S(=O)(=O)C3)CC1 [Example 119, tert-Butyl 4-[3-(morpholin-4-ylcarbonyl)-5,5-dioxidothiochromeno[4,3-c]pyrazol-1(4H)-yl]piperidine-1-carboxylate]",808 nM
4,CC(C)(C)OC(=O)N1CCCC(n2nc(C(=O)N3CCOCC3)c3c2-c2ccccc2S(=O)(=O)C3)C1 (stereo not shown) [Example 120],1540 nM
5,"O=C(c1nn(C2CCN(CCO)CC2)c2c1CS(=O)(=O)c1ccccc1-2)N1CCOCC1 [Example 121, 2-{4-[3-(Morpholin-4-ylcarbonyl)-5,5-dioxidothiochromeno[4,3-c]pyrazol-1 (4H)-yl]piperidin-1-yl}ethanol]",1760 nM
6,O=C(c1nn(-c2ccccc2)c2c1CS(=O)(=O)c1cc(Br)ccc1-2)N1CCOCC1 [Example 122],904 nM
7,"CS(=O)(=O)N1CCC(n2nc(C(=O)N3CCOCC3)c3c2-c2ccccc2S(=O)(=O)C3)CC1 [Example 123, 1-[1-(Methylsulfonyl)piperidin-4-yl]-3-(morpholin-4-ylcarbonyl)-1,4-dihydrothiochromeno[4,3-c]pyrazole 5,5-dioxide]",2100 nM
8,"CN1CCN(C(=O)c2cccc(-n3nc(C(=O)N4CCOCC4)c4c3-c3ccccc3S(=O)(=O)C4)c2)CC1 [Example 124, 1-{3-[(4-Methylpiperazin-1-yl)carbonyl]phenyl}-3-(morpholin-4-ylcarbonyl)-1,4-dihydrothiochromeno[4,3-c]pyrazole 5,5-dioxide]",253 nM
9,"O=C(c1cccc(-n2nc(C(=O)N3CCOCC3)c3c2-c2ccccc2S(=O)(=O)C3)c1)N1CCCCC1 [Example 125, 3-(Morpholin-4-ylcarbonyl)-1-[3-(piperidin-1-ylcarbonyl)phenyl]-1,4-dihydrothiochromeno[4,3-c]pyrazole 5,5-dioxide]",182 nM
10,"COCCNC(=O)c1cccc(-n2nc(C(=O)N3CCOCC3)c3c2-c2ccccc2S(=O)(=O)C3)c1 [Example 126, N-(2-Methoxyethyl)-3-[3-(morpholin-4-ylcarbonyl)-5,5-dioxidothiochromeno[4,3-c]pyrazol-1 (4H)-yl]benzamide]",1110 nM
11,"CC1CCC(n2nc(C(=O)N3CCOCC3)c3c2-c2ccccc2S(=O)(=O)C3)CC1 (stereo not shown) [Example 127, 1-(4-Methylcyclohexyl)-3-(morpholin-4-ylcarbonyl)-1,4-dihydrothiochromeno[4,3-c]pyrazole 5,5-dioxide]",426 nM
12,"O=C(c1nn(C2CCCCC2)c2c1CS(=O)(=O)c1cc(Br)ccc1-2)N1CCOCC1 [Example 128, 7-Bromo-1-cyclohexyl-3-(morpholin-4-ylcarbonyl)-1,4-dihydrothiochromeno[4,3-c]pyrazole 5,5-dioxide]",691 nM
13,"Cc1ccc2c(c1)-c1c(c(C(=O)N3CCOCC3)nn1-c1ccccc1)CS2(=O)=O [Example 129, 8-Methyl-3-(morpholin-4-ylcarbonyl)-1-phenyl-1,4-dihydrothiochromeno[4,3-c]pyrazole 5,5-dioxide]",1500 nM
14,"CS(=O)(=O)c1ccc(-n2nc(C(=O)N3CCOCC3)c3c2-c2ccccc2S(=O)(=O)C3)cc1 [Example 130, 1-[4-(Methylsulfonyl)phenyl]-3-(morpholin-4-ylcarbonyl)-1,4-dihydrothiochromeno[4,3-c]pyrazole 5,5-dioxide]",4520 nM
15,"COc1ccc(-n2nc(C(=O)N3CCOCC3)c3c2-c2ccccc2S(=O)(=O)C3)cn1 [Example 131, 1-(6-Methoxypyridin-3-yl)-3-(morpholin-4-ylcarbonyl)-1,4-dihydrothiochromeno[4,3-c]pyrazole 5,5-dioxide]",2200 nM
16,"O=C(c1nn(-c2ccccc2)c2c1CS(=O)(=O)c1ncccc1-2)N1CCOCC1 [Example 132, 3-(Morpholin-4-ylcarbonyl)-1-phenyl-1,4-dihydropyrazolo[3′,4′:4,5]thiopyrano[2,3-b]pyridine 5,5-dioxide]",530 nM
17,"COCCN1CCCC(n2nc(C(=O)N3CCOCC3)c3c2-c2ccccc2S(=O)(=O)C3)C1 (stereo not shown) [Example 133, 1-[1-(2-Methoxyethyl)piperidin-3-yl]-3-(morpholin-4-ylcarbonyl)-1,4-dihydrothiochromeno[4,3-c]pyrazole 5,5-dioxide]",188 nM

row,Compound,IC50
1,"O=C(c1nn(C2CCCN(CCO)C2)c2c1CS(=O)(=O)c1ccccc1-2)N1CCOCC1 (stereo not shown) [Example 134, 2-{3-[3-(Morpholin-4-ylcarbonyl)-5,5-dioxidothiochromeno[4,3-c]pyrazol-1 (4H)-yl]piperidin-1-yl}ethanol]",815 nM
2,"CS(=O)(=O)N1CCCC(n2nc(C(=O)N3CCOCC3)c3c2-c2ccccc2S(=O)(=O)C3)C1 (stereo not shown) [Example 135, 1[1-(Methylsulfonyl)piperidin-3-yl]-3-(morpholin-4-ylcarbonyl)-1,4-dihydrothiochromeno[4,3-c]pyrazole 5,5-dioxide]",994 nM
3,"CS(=O)(=O)c1cccc(-n2nc(C(=O)N3CCOCC3)c3c2-c2ccccc2S(=O)(=O)C3)c1 [Example 138, 1-[3-(Methylsulfonyl)phenyl]-3-(morpholin-4-ylcarbonyl)-1,4-dihydrothiochromeno[4,3-c]pyrazole 5,5-dioxide]",2560 nM
4,"Cc1ccc2c(c1)S(=O)(=O)Cc1c(C(=O)N3CCOCC3)nn(-c3ccccc3)c1-2 [Example 139, 7-Methyl-3-(morpholin-4-ylcarbonyl)-1-phenyl-1,4-dihydrothiochromeno[4,3-c]pyrazole 5,5-dioxide]",1840 nM
5,"NCCCC1c2c(C(=O)N3CCOCC3)nn(-c3ccccc3)c2-c2ccccc2S1(=O)=O (stereo not shown) [Example 140, 3-[3-(Morpholin-4-ylcarbonyl)-5,5-dioxido-1-phenyl-1,4-dihydrothiochromeno[4,3-c]pyrazol-4-yl]propan-1-amine]",4520 nM
6,"O=C(c1nn(-c2cccc(CO)c2)c2c1CS(=O)(=O)c1ccccc1-2)N1CCOCC1 [Example 141, {3-[3-(Morpholin-4-ylcarbonyl)-5,5-dioxidothiochromeno[4,3-c]pyrazol-1(4H)-yl]phenyl}methanol]",2250 nM
7,"COC1CCN(C(=O)c2cccc(-n3nc(C(=O)N4CCOCC4)c4c3-c3ccccc3S(=O)(=O)C4)c2)CC1 [Example 142, 1-{3-[(4-Methoxypiperidin-1-yl)carbonyl]phenyl}-3-(morpholin-4-ylcarbonyl)-1,4-dihydrothiochromeno[4,3-c]pyrazole 5,5-dioxide]",302 nM
8,"O=C(c1cccc(-n2nc(C(=O)N3CCOCC3)c3c2-c2ccccc2S(=O)(=O)C3)c1)N1CCC(O)CC1 [Example 143, 1-{3-[3-(Morpholin-4-ylcarbonyl)-5,5-dioxidothiochromeno[4,3-c]pyrazol-1 (4H)-yl]benzoyl}piperidin-4-ol]",371 nM
9,"O=C(c1cccc(-n2nc(C(=O)N3CCOCC3)c3c2-c2ccccc2S(=O)(=O)C3)c1)N1CCCC(O)C1 (stereo not shown) [Example 144, 1-{3-[3-(Morpholin-4-ylcarbonyl)-5,5-dioxidothiochromeno[4,3-c]pyrazol-1 (4H)-yl]benzoyl}piperidin-3-ol]",348 nM
10,"O=C(c1cccc(-n2nc(C(=O)N3CCOCC3)c3c2-c2ccccc2S(=O)(=O)C3)c1)N1CCCC(CO)C1 (stereo not shown) [Example 145, (1-{3-[3-(Morpholin-4-ylcarbonyl)-5,5-dioxidothiochromeno[4,3-c]pyrazol-1 (4H)-yl]benzoyl}piperidin-3-yl)methanol]",502 nM
11,"O=C(c1cccc(-n2nc(C(=O)N3CCOCC3)c3c2-c2ccccc2S(=O)(=O)C3)c1)N1CCS(=O)(=O)CC1 [Example 146, 1-{3-[(1,1-Dioxidothiomorpholin-4-yl)carbonyl]phenyl}-3-(morpholin-4-ylcarbonyl)-1,4-dihydrothiochromeno[4,3-c]pyrazole 5,5-dioxide]",319 nM
12,"O=C(c1ccc(-n2nc(C(=O)N3CCOCC3)c3c2-c2ccccc2S(=O)(=O)C3)cc1)N1CCOCC1 [Example 147, 3-(Morpholin-4-ylcarbonyl)-1-[4-(morpholin-4-ylcarbonyl)phenyl]-1,4-dihydrothiochromeno[4,3-c]pyrazole 5,5-dioxide]",274 nM
13,"O=C(NC1CCOCC1)c1cccc(-n2nc(C(=O)N3CCOCC3)c3c2-c2ccccc2S(=O)(=O)C3)c1 [Example 148, 3-[3-(Morpholin-4-ylcarbonyl)-5,5-dioxidothiochromeno[4,3-c]pyrazol-1(4H)-yl]-N-(tetrahydro-2H-pyran-4-yl)benzamide]",1260 nM
14,"O=C(Nc1cccnc1)c1cccc(-n2nc(C(=O)N3CCOCC3)c3c2-c2ccccc2S(=O)(=O)C3)c1 [Example 149, 3-[3-(Morpholin-4-ylcarbonyl)-5,5-dioxidothiochromeno[4,3-c]pyrazol-1(4H)-yl]-N-pyridin-3-ylbenzamide]",926 nM
15,"O=C(c1nn(-c2ccccc2)c2c1CS(=O)(=O)c1ccncc1-2)N1CCOCC1 [Example 150, 3-(Morpholin-4-ylcarbonyl)-1-phenyl-1,4-dihydropyrazolo[3′,4′:4,5]thiopyrano[3,2-c]pyridine 5,5-dioxide]",3050 nM
16,"O=C(c1ccc(-n2nc(C(=O)N3CCOCC3)c3c2-c2ccccc2S(=O)(=O)C3)cc1)N1CCCCC1 [Example 151, 3-(Morpholin-4-ylcarbonyl)-1-[4-(piperidin-1-ylcarbonyl)phenyl]-1,4-dihydrothiochromeno[4,3-c]pyrazole 5,5-dioxide]",238 nM
17,"CN(C)c1ccc2c(c1)S(=O)(=O)Cc1c(C(=O)N3CCOCC3)nn(-c3ccccc3)c1-2 [Example 152, N,N-Dimethyl-3-(morpholin-4-ylcarbonyl)-1-phenyl-1,4-dihydrothiochromeno[4,3-c]pyrazol-7-amine 5,5-dioxide]",5020 nM
